In US6893829B2, “Human leukocyte 12-lipoxygenase and its role in the pathogenesis of disease states” (City of Hope, priority 1992, dated 2005):

Key:
ERK = ERK activity in CHO-AT1a cells; type: cell-based, Chinese hamster; conditions: 12-HETE 10^−7M, peaks at 5 minutes and 3-4.5 hours
Experimental: ERK activity was evaluated by the substrate-SDS-polyacrylamide gel method described in Anal. Biochem., 183:139-143 (1989). Confluent cells in […] were made quiescent in serum-free medium and then treated with agonists for various time periods. The cells were then lysed in lysis buffer (1% NP40, 1% sodium deoxycholate, 0.1% SDS, 100 mM NaCl, 50 mM Tris, 10 mM EDTA, 1 mM EGTA, aprotinin, […], 0.1 mM PMSF and 1 mM sodium orthovanadate, pH 7.4). Lysates were centrifuged to pellet nuclei and the cell extracts ([…]) were subjected to electrophoresis on SDS-polyacrylamide gels (10%) containing myelin basic protein (0.5 mg/ml) as an ERK substrate. The SDS was then washed, followed by denaturation, renaturation and protein phosphorylation on the gel with [^32P] ATP.
(§1) It has been discovered that the administration of AII results in biphasic activation of MAP kinase (all of the MAP kinase experiments were conducted in CHO-AT1a cells—AII receptor AT1a cDNA transfected Chinese hamster ovary cells).

JNK = JNK activity in CHO-AT1a cells; type: cell-based, Chinese hamster
Experimental: The plasmid pGEX-cJun 1/79 (Dept. Pharmacol. UCSD, La Jolla) is a GST-cJun (1-79) expression vector encoding amino acids (1-79) of cJun. The GST fusion protein expression vector was transformed into E. Coli. Protein was induced with 0.1 mM IPTG and purified by affinity binding to glutathione-agarose beads. Unstimulated or stimulated cells were lysed into WCEB (25 mM HEPES, pH 7.7, 03.M Nacl, 15 mM MgCl2, 02.mM EDTA and 0.1% triton X-100). About 50 μg protein extract was incubated with GST-cJun+GSH agarose overnight at 4° C. Phosphorylation was carried out at 30° C. for 20 minutes in the presence of 20 mM HEPES, pH 7.5, 20 mM b-glycerophosphate, 10 mM p-nitrophenolphosphate, 10 mM MgCl2, 10 mM DDT, 50 μg Na3VO4, 20 μM ATP (cold) and about 0.5 μl of new gamma ^32P-ATP. After boiling with electrophoresis sample buffer, the supernatants were analyzed on 12% SDS-PAGE. JNK activity was also measured by immunoprecipitation method using an anti-JNK antibody (Parmingen Co., San Diego) and then activities were measured using 2 μg of GST-cJun (1-79) as substrate as described in Cell, 81:1147-1157 (1995).
as §1

JAK1 and JAK2 = assay: JAK activity in CHO-AT1a cells (phosphotyrosine immunoprecipitation, JAK1/JAK2 immunoblot); type: cell-based, Chinese hamster; conditions: 12-HETE 10^−7M, 10 hours
Experimental: It has further been discovered that 12-HETE induces stimulation of JAK activity. CHO-AT1a cells were treated with 12-HETE (10^−7M) for 10 hours, immunoprecipitated with a phosphotyrosine antibody and immunoblotted using specific JAK1 and JAK2 antibodies.

[1] = test system: VEGF protein in MCF-7 cells; assay: VEGF protein expression in breast cancer cells (immunoblot); type: cell-based, human
Experimental: FIG. 8 illustrates the dose-dependent effect of platelet-derived growth factor (PDGF) on vascular endothelial growth factor (VEGF) protein (42 kD) expression in MCF-7 breast cancer cells. Nearly confluent MCF-7 cells were serum starved for 24 hours by placing in DME medium+0.4% FCS and 0.2% BSA. This medium was then freshly replaced and the cells incubated for another 24 hours with PDGF. At the end of the incubation, the cell monolayers were washed with ice-cold PBS, scraped into PBS and pelleted by centrifugation. The cell pellets were then lysed and equal amounts of protein (50 μg) subjected to electrophoresis and immunoblotting to detect VEGF using a specific antibody from Santa Cruz Biotechnology. Detection was by a chemiluminiscent technique.
FIG. 9 illustrates the effect of epidermal growth factor (EGF) and the 12-lipoxygenase product 12-HETE on VEGF protein expression in the MCF-7 breast cancer cell line MCF-7. MCF-7 cells were treated with EGF and 12-HETE for 24 hours and VEGF protein identified as described in the legend to FIG. 8.

[2] = test system: VEGF in vascular smooth muscle cells (VSMC); assay: VEGF protein, mRNA and secretion in VSMC (Western, Northern, EIA); type: cell-based, Porcine and human
Experimental: In addition to the work reflected in FIGS. 8-10, it has now been discovered that AII, 12-HETE and hyperglycemia (HG) increase VEGF production in vascular smooth muscle cells (VSMC). Porcine and human VSMC were cultured for at least two passages under normal glucose (NG, 5.5 mM) or under HG conditions. VEGF protein expression was determined by Western blotting and VEGF mRNA by Northern blots. HG alone increased the level of VEGF mRNA (2.8-fold) and protein (3.2-fold). […] In addition, HG increased the secretion of VEGF into the medium as measured by a specific EIA (56.2±4 ng/ml NG vs 73±5 HG, p<0.02).

RINm5F cells = assay: DNA synthesis (3H-thymidine incorporation) in RINm5F cells; type: cell-based, rat; conditions: 24 hours, 12-HETE 10^−9M
Experimental: FIG. 11 illustrates the effects of 12-LO products on DNA synthesis in the insulin-producing rat beta cell line, RINm5F. DNA synthesis was studied using ^3H-thymidine incorporation (luCi/ml) added for the last six hours (18-24 hours of experiment). The LO products were added to the cells in complete growth media for 24 hours.
Applicants have discovered that direct addition of the 12-LO products 12-S-HETE or 12-HPETE directly decreases cellular growth as reflected by decreased ^3H thymidine incorporation or DNA synthesis in the rat pure beta cell line RIN-M5F.

[3] = test system: beta sub-unit of the human insulin receptor; assay: Insulin receptor phosphorylation in rat-1-fibroblasts containing the human insulin receptor; type: cell-based; conditions: 12-HETE 10^−7M
Experimental: 7. Baicalein, a selective 12-LO inhibitor, can prevent glucose-induced insulin resistance. To perform these studies, applicants cultured rat-1-fibroblasts that have been engineered to contain the human insulin receptor for ten days in high glucose (25 mM). For the last 24 hours, the cells were cultured with 10^−6M baicalein. The marked bands represent the phosphorylated beta sub-unit of the human insulin receptor (FIG. 23). As the band becomes lighter, it represents reduced insulin action. Lane 1 represents the insulin receptor phosphorylation in normal glucose (5.5 mM) vs the reduced insulin action in lane 5 (25 mM glucose).

MO binding to HAEC = assay: Monocyte binding to human aortic endothelial cells; type: cell-based; conditions: HAEC in 5.5 mM glucose, 10^−10M; control 66±6
Experimental: The rate of atherosclerosis is accelerated in humans with diabetes mellitus (DM). Applicants recently published evidence that high glucose (HG) exposure of human aortic endothelial cells (HAEC) selectively increases monocyte (MO) but not neutrophil binding (56). HG exposure to EC can increase arachidonic acid (AA) release and lipoxygenase (LO) production formation. In the current study, applicants evaluated the role of 12- and 15-LO products in MO binding to HAEC. Culture of HAEC in HG (25 mM) for two passages increased MO binding compared to cells maintained in 5.5 mM glucose (239±30 cells/field HG vs 111±7, p<0.01). Phenidone (10^−6M), an inhibitor of the 12-LO pathway (50 percent inhibition of HG-induced binding, p<0.05). […] 12(S)-HETE added to HAEC cultured in 5.5 mM glucose increased MO binding (66±6 cells/field control vs 114±4 12-HETE 10^−10M, p<0.01). […] In summary, (1) elevated glucose increases MO binding to HAEC and this effect can be reduced by blockade of the LO pathway; (2) 12 but not 15-LO products, can increase MO binding.

[4] = test system: smooth muscle cell migration; conditions: cited from earlier work
VEGF protein in AIHSMC = assay: VEGF protein expression in immortalized human aortic smooth muscle cell line (AIHSMC); type: cell-based; conditions: five hours
Experimental: FIG. 10 illustrates the effect of a 12-lipoxygenase product 12-HPETE on VEGF protein (42 kD) expression in an immortalized human aortic smooth muscle cell line (AIHSMC). The cells were serum starved for 24 hours and then placed in fresh medium along with 12-HPETE. Cells were incubated for five hours and VEGF protein was then identified in cell lysed as described in the legend to FIG. 8.

leukocyte 12-LO = leukocyte 12-LO (Sus scrofa, UniProt P16469); conditions: reference 55; cited from earlier work
[5] = test system: 12-LO product formation in PVSMC; assay: 12-HETE in PVSMC cultured in glucosamine (RIA); type: cell-based, porcine; conditions: glucosamine 7.5 mM
Experimental: Porcine vascular smooth muscles cells (PVSMC) were cultured in the presence of glucosamine (7.5 mM) for 24 hours. New media was then added with glucosamine (7.5 mM) for 25 minutes. The cells and media above the cells were collected and 12-HETE was measured using RIA. A very large increase in 12-HETE release into the media in cells cultured in glucosamine compared to those in normal glucose (6.48±1.2 pg/ml 12-HETE release in normal glucose vs. 20.6±3.6 pg/ml released in glucosamine n=4) was observed. Furthermore, cell associated 12-HETE was higher in glucosamine treated cells (735.9±67 pg/cell incubate normal glucose vs. 1225±112 pg in glucosamine).

[6] = test system: leukocyte-type 12-LO in PVSMC; assay: 12-LO activity, mRNA and protein in PVSMC; type: cell-based, porcine; conditions: 24 hours
Experimental: FIG. 14A illustrates the dose-dependent effect of the cytokine interleukin-1β on 12-LO mRNA expression in porcine aortic smooth muscle cells (PVSMC). Confluent PVSMC growth in normal glucose medium was serum depleted for 24 hours by placing in medium+0.2% BSA+0.4% FCS. This medium was then freshly replaced along with IL-1β and the cells incubated for a further 24 hours. At the end of the incubation, total RNA was extracted from the cells using RNA-STAT. This RNA was the subjected to reverse-transcriptase polymerase chain reaction (RT-PCR) to detect and quantitate leukocyte-type 12-LO mRNA (333 bp PCR product, upper panel) using our well established techniques. The expression of GAPDH mRNA 284 bp, lower panel) was used as an internal control for PCR and for quantitation.
FIG. 14B illustrates the effect of the cytokine IL-4 on 12-LO mRNA expression in PVSMC. The ells were treated for 24 hours with IL-4 and 12-LO mRNA quantitated as described in the legend to FIG. 14A. It is clearly seen that IL-4 also increases 12-LO mRNA expression similar to IL-1β.
FIG. 14C illustrates the effect of the cytokine IL-8 on 12-LO mRNA expression in PVSMC. The cells were treated for 24 hours with IL-8 and 12-LO mRNA quantitated as described under legend 14A.
(§2) The cells were cultured in DME (normal glucose) and treated for 24 hours±cytokines in medium containing 0.2% BSA and 0.4% serum. Intracellular 12-LO enzyme activity was measured by HPLC, leukocyte-type 12-LO protein expression by immunoblotting and 12-LO mRNA by a specific reverse transcriptase polymerase chain reaction (RT-PCR). […] Treatment with these cytokines (0.5-5 ng/ml) also led to an increase (1.4-2.5-fold) in 12-LO protein expression 72 kD). In addition, all three cytokines (2.5 ng/ml) could induce a significant increase in PVSMC DNA synthesis (1.280.08, 1.67±0.11 and 1.3±0.07 fold increase in ^3H thymidine incorporation with IL-1, -4, and -8 respectively, p<0.01).

PVSMC = PVSMC DNA synthesis (3H thymidine incorporation); type: cell-based, porcine; conditions: 2.5 ng/ml
Experimental: as §2

Chain of leukocyte 12-LO (P16469 whole entry): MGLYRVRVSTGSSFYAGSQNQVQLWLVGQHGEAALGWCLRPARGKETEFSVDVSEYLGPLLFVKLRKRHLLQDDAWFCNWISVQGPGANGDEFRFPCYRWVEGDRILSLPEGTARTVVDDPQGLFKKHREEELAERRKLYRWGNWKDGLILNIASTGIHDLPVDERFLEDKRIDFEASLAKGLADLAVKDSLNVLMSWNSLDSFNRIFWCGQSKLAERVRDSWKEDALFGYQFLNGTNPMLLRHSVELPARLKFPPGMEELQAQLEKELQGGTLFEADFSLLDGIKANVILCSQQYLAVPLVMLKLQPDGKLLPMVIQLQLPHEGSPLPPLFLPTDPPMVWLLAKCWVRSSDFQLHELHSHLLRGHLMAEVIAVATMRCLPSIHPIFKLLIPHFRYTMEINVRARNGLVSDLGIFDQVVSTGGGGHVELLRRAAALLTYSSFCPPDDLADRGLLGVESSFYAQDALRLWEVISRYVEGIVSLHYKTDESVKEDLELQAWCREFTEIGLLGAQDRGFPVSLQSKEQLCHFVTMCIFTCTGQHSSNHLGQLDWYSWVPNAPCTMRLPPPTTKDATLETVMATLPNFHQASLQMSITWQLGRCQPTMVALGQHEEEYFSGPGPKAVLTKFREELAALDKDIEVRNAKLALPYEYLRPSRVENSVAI

Q: With CCCCC/C=C\C[C@@H](O)/C=C/C=C\C/C=C\CCCC(=O)O [12-HETE, 12-Hydroxyeicosatetraenoic Acid] as the compound, how does the “stimulation of ERK activity” value (ERK) read?
A: biphasic stimulation

Q: What about the “stimulation of JNK activity, first peak” value (JNK; 12-HETE 10^−7M, 30 minutes) of the same compound?
A: 2-3 fold

Q: And the “stimulation of JNK activity, second peak” value (JNK; 12-HETE 10^−7M, 3 hours)?
A: 2.5-5 fold

Q: And the “lowest concentration stimulating JNK activity” value (JNK; FIG. 29)?
A: 10^−9 M

Q: What about the JAK activity (JAK1 and JAK2) of the same compound?
A: increased JAK activity

Q: And the VEGF protein expression ([1]; MCF-7, 24 hours)?
A: more potent than EGF

Q: What about the VEGF protein expression ([1]; MCF-7 and MDA MB, 12-HETE 10^−7M and 10^−6M) of the same compound?
A: increases VEGF protein expression

Q: And the “increase in VEGF secretion (EIA)” value [2]?
A: 1.4 fold

Q: What about the “expression of VEGF protein and mRNA” value ([2]; 12-HETE 10^−8M and 10^−7M, 4 hours, NG and HG) of the same compound?
A: increased the expression

Q: What about the “3H-thymidine incorporation (DNA synthesis)” value (RINm5F cells) of the same compound?
A: reduced

Q: And the “basal insulin receptor phosphorylation” value [3]?
A: did not directly alter

Q: And the “insulin-induced receptor phosphorylation of the beta subunit” value [3]?
A: markedly reduced

Q: What about the MO binding (MO binding to HAEC) of the same compound?
A: 114±4 cells/field

Q: And the “lowest concentration leading to smooth muscle cell migration” value [4]?
A: 10^−12 M

Q: Which “VEGF protein (42 kD) expression” value (VEGF protein in AIHSMC) does the source give for CCCCC/C=C\CC(/C=C/C=C\C/C=C\CCCC(=O)O)OO (stereo not shown) [12-HPETE, 12-Hydroperoxyeicosatetraenoic Acid] here?
A: causes an increase

Q: What about the “3H-thymidine incorporation (DNA synthesis)” value (RINm5F cells) of the same compound?
A: reduced

Q: With C=C[C@H](O)C#CC#CC/C=C\CCCCCCC [Panaxynol] as the compound, how does the “inhibition of leukocyte 12-LO” value (leukocyte 12-LO) read?
A: relatively selective inhibitor

Q: Which “12-HETE release into the media” value ([5]; normal glucose 6.48±1.2) does the source give for N[C@H]1C(O)O[C@H](CO)[C@@H](O)[C@@H]1O (stereo partly shown) [glucosamine] here?
A: 20.6 ± 3.6 pg/mL

Q: What about the “cell associated 12-HETE” value ([5]; normal glucose 735.9±67 pg/cell incubate) of the same compound?
A: 1225 ± 112 pg

Q: What does the source list for IL-8: cytokine IL-8?
A: increase in 12-HETE HPLC peak (12-LO enzyme activity) ([6]; 2.5 ng/ml): 36%; 12-LO mRNA expression in PVSMC ([6]; FIG. 14): dose-dependent increase; increase in 3H thymidine incorporation (PVSMC): 1.3±0.07 fold
